Results: patent US4072751A, “Pesticidal N-substituted bis-carbamoyl sulfide compounds” (priority 1976, dated 1978)

What was measured:
[1] = Mammalian Toxicity Test (peroral toxicity); conditions: in vivo, po, rat, read-out: A. O. Rat (LD50)
Method: Certain of these compositions were also evaluated to determine their peroral toxicity to mammals. The animal selected for this experiment was the rat. The test results obtained are expressed in terms of the number of milligrams of compositions per kilogram of weight of the animal required to achieve a morality rate of 50 percent (LD50).

[2] = tested on: southern armyworm (Prodenia Eridania, (Cram.)); assay: Southern Armyworm Leaf Spray Test; type: in vivo; parameters: key: A: excellent control; B: partial control; C: no control; conditions: larvae; 500 parts of test compound per million parts of final formulation; 3 days
Method: (§1) Suspensions of the test compounds were prepared by dissolving one gram of compound in 50 milliliters of acetone in which had been dissolved 0.1 gram (10 percent of the weight of compound) of an alkylphenoxy polyethoxyethanol surfactant, as an emulsifying or dispersing agent. The resulting solution was mixed into 150 milliliters of water to give roughly 200 milliliters of a suspension containing the compound in finely divided form. The thus-prepared stock suspension contained 0.5 percent by weight of test compound. The test concentrations in parts per million by weight employed in the tests described hereinbelow were obtained by appropriate dilutions of the stock suspension with water. The test procedures were as follows:
Larvae of the southern armyworm (Prodenia Eridania, (Cram.), reared on Tendergreen bean plants at a temperature of 80±5° F. and relative humidity of 50±5 percent, constituted the test insects.
The test compounds were formulated by diluting the stock suspension with water to give a suspension containing 500 parts of test compound per million parts of final formulation. Potted Tendergreen bean plants of standard height and age were placed on a revolving turntable and sprayed with 100-110 milliliters of test compound formulation by use of a DeVilbiss spray gun set at 10 psig. air pressure.
This application which lasted 25 seconds was sufficient to wet plants to run-off. As a control, 100-110 milliliters of a water-acetone-emulsifier solution containing no test compound were also sprayed on infested plants. When dry, the paired leaves were separated and each one was placed in a 9 centimeter Petri dish lined with moistened filter paper. Five randomly selected larvae were introduced into each dish and the dishes were closed. The closed dishes were labeled and held at 80°-85° F. for 3 days. Although the larvae could easily consume the whole leaf within 24 hours, no more food was added. Larvae which were unable to move the length of the body, even upon stimulation by prodding, were considered dead. Percent mortality was recorded for various concentration levels.
(§2) In these tests the pesticidal activity of the compounds against aphid, mite, Southern Armyworm, Mexican Bean Beetle, and house fly was rated as follows: […]

[3] = tested on: two-spotted mite (Tetranychus urticae Koch); assay: Mite Foliage Spray Test; type: in vivo; parameters: key: A: excellent control; B: partial control; C: no control; conditions: 500 parts of test compound per million parts of final formulation; 6 days
Method: as §1
Adults and nymphal stages of the two-spotted mite (Tetranychus urticae Koch), reared on Tendergreen bean plants at 80±5 percent relative humidity, were the test organisms. Infested leaves from a stock culture were placed on the primary leaves of two bean plants 6 to 8 inches in height, growing in a 21/2 inch clay pot. 150-200 Mites, a sufficient number for testing, transferred from the excised leaves to the fresh plants in a period of 24 hours. Following the 24 hour transfer period, the excised leaves were removed from the infested plants. The test compounds were formulated by diluting the stock suspension with water to give a suspension with water to give a suspension containing 500 parts of test compound per million parts of final formulation. The potted plants (one pot per compound) were placed on a revolving turntable and sprayed with 100-110 milliliters of test compound formulation by use of a DeVilbiss spray gun set at 40 psig. air pressure. This application, which lasted for 25 seconds was sufficient to wet the plants to run-off. As a control, 100-110 milliliters of a water solution containing acetone and emulsifier in the same concnetrations as the test compound formulation, but containing no test compound, were also sprayed on infested plants. The sprayed plants were held at 80±5 percent relative humidity for 6 days, after which a mortality count of motile forms was made. Microscopic examination for motile forms was made on the leaves of the test plants. Any individual which was capable of locomotion upon prodding, was considered living.
as §2

[4] = tested on: Mexican bean beetle (Epilachna varivestis, Muls.); assay: Mexican Bean Beetle Leaf Spray Test; type: in vivo; parameters: key: A: excellent control; B: partial control; C: no control; conditions: fourth instar larvae; 500 parts of test compound per million parts of final formulation; 3 days
Method: as §1
Fourth instar larvae of the Mexican bean beetle (Epilachna varivestis, Muls.) reared on Tendergreen bean plants at a temperature of 80±5° and 50±5 percent relative humidity, were the test insects.
The test compounds were formulated by diluting the stock suspension with water to give a suspension containing 500 parts of test compound per million parts of final formulation. Potted Tendergreen bean plants of standard height and age were placed on a revolving turntable and sprayed with 100-110 milliliters of test compound formulation by use of a DeVilbiss spray gun set at 10 psig air pressure. This application, which lasted 25 seconds was sufficient to wet plants to run-off. As a control, 100-110 milliliters of a water-acetone-emulsifier solution containing no test compound were also sprayed on infested plants. When dry, the paired leaves were separated and each was placed in a 9 centimeter Petri dish lined with moistened filter paper. Five randomly selected larvae were introduced into each dish, and the dishes were closed. The closed dishes were labeled and held at a temperature of 80±5° F. for 3 days. Although the larvae could easily consume the leaf within 24 to 48 hours, no more food was added. Larvae which were unable to move the length of the body, even upon stimulation, were considered dead.
as §2

[5] = tested on: house flies (Musca domestica, L.); assay: Fly Bait Test; type: in vivo; parameters: key: A: excellent control; B: partial control; C: no control; conditions: adults, 500 parts of test compound per million parts of final formulation, 24 hours
Method: as §1
Four to 6 day old adult house flies (Musca domestica, L.) reared according to the specifications of the Chemical Specialties Manufacturing Association (Blue Book, McNair-Dorland Co., NY., 1954; pages 243-244, 261) under controlled conditions of 80±5° F. and 50±5 percent relative hmidity, were the test insects. The flies were immobilized by anesthetizing with carbon dioxide and 25 immobilized individuals, males and females, were transferred to a cage consisting of a standard food strainer about 5 inches in diameter which was inverted over a wrapping-paper-covered surface. The test compounds were formulated by diluting the stock suspension with a 10 percent (by weight) sugar solution to give a suspension containing 500 parts of test compound per million parts of final formulation, by weight. Ten milliliters of the test formulation were added to a souffle cup containing a one inch square of an absorbent cotton pad. This bait cup was introduced and centered on the blotting paper under the food strainer prior to admitting the anesthetized flies. The caged flies were allowed to feed on the bait for 24 hours, at a temperature of 80±5° F. and the relative humidity of 50±5 percent.
as §2

[6] = tested on: bean aphid (Aphis Fabae Scop.); assay: Bean Aphid Foliage Spray Test; type: in vivo; parameters: key: A: excellent control; B: partial control; C: no control; conditions: 500 parts of test compound per million parts of final formulation; 24 hour
Method: as §1
Adults and nymphal stages of the bean aphid (Aphis Fabae Scop.) reared on potted dwarf nasturtium plants at 65°-70° F and 50-70 percent relative humidity, constituted the test insects. For testing purposes, the number of aphids per pot was standardized to 100-150 by trimming plants containing excess aphids.
The test compounds were formulated by diluting the stock suspension with water to give a suspension containing 500 parts of test compound per million parts of final formulation.
The potted plants (one pot per compound tested) infested with 100-150 aphids, were placed on a revolving turntable and sprayed with 100-110 milliliters of test compound formulation by use of a DeVilbiss spray gun set at 40 psig. air pressure. This application, which lasted 25 seconds, was sufficient to wet the plants to run-off. As a control, 100-110 milliliters of a water-acetone-emulsifier solution containing no test compound were also sprayed on infested plants. After spraying, the pots were placed on their sides on a sheet of white standard mimeograph paper which had been previously ruled to facilitate counting. Temperature and humidity in the test room during the 24 hour holding period were 65°-70° F. and 50-70 percent, respectively. Aphids which fell onto the paper and were unable to remain standing after being uprighted were considered dead. Aphids remaining on the plants were observed closely for movement and those which were unable to move the length of the body upon stimulator by prodding were considered dead. Percent mortality was recorded for various concentration levels.
as §2

Row | Structure (SMILES) | LD50 [1] | Southern Armyworm [2] | Mite [3] | Mexican Bean Beetle [4] | Housefly [5] | Aphid [6]
1 | CSC(C)=NOC(=O)N(C)SN(C)C(=O)ON=C(C)[S+](C)[O-] (stereo not shown) | 202 mg/kg | A | C | A | A | A
2 | CSC(C)=NOC(=O)N(C)SN(C)C(=O)ON=C(C)S(C)(=O)=O | 285 mg/kg | A | A | A | A | A
3 | CC(=NOC(=O)N(C)SN(C)C(=O)ON=C(C)[S+](C)[O-])[S+](C)[O-] (stereo not shown) |  | C | C | C | C | C
4 | CC(=NOC(=O)N(C)SN(C)C(=O)ON=C(C)S(C)(=O)=O)S(C)(=O)=O |  | C | C | C | C | C
